Results as given in patent US7659270B2, “Hepatitis C virus inhibitors” (Bristol-Myers Squibb Company, priority 2006, dated 2010).

Tested on: HCV 1b-377-neo replicon cells
Test: HCV replicon assay (HCV 1b-377-neo replicon cells)
Format: cell-based, Hepatitis C virus genotype 1b
Conditions: Hepatitis C virus, read-out: EC50 range against HCV 1b (Range)
How it was run: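 HCV genotype 1b (1b-377-neo) replicon cells, run as a validated replicon assay; parallel testing in replicon cells carrying the NS5A Y2065H resistance mutation.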

`COC(=O)N[C@H](C(=O)N1CCC[C@H]1c1ncc(-c2ccc(-c3ccc(-c4cnc([C@@H]5CCCN5C(=O)[C@@H](Nc5noc(N)n5)C(C)C)[nH]4)cc3)cc2)[nH]1)C(C)C` [cj-16, methyl((1S)-1-(((2S)-2-(5-(4′-(2-((2S)-1-(N-(5-amino-1,2,4-oxadiazol-3-yl)-L-valyl)-2-pyrrolidinyl)-1H-imidazol-5-yl)-4-biphenylyl)-1H-imidazol-2-yl)-1-pyrrolidinyl)carbonyl)-2-methylpropyl)carbamate] gave an EC50 of 0.01 to 0.999 nM.

In the case of `COC(=O)N[C@@H](C(=O)N1CCC[C@H]1c1ncc(-c2ccc(-c3ccc(-c4cnc([C@@H]5CCCN5C(=O)N5CCOCC5)[nH]4)cn3)cc2)[nH]1)c1ccccc1` [Example 144, methyl((1R)-2-((2S)-2-(5-(4-(5-(2-((2S)-1-(4-morpholinylcarbonyl)-2-pyrrolidinyl)-1H-imidazol-5-yl)-2-pyridinyl)phenyl)-1H-imidazol-2-yl)-1-pyrrolidinyl)-2-oxo-1-phenylethyl)carbamate], the EC50 is reported as 0.01 to 0.999 nM.

For `C[C@H](NC(=O)[C@@H](c1ccccc1)N(C)C)c1ncc(-c2ccc(-c3ccc(-c4cnc([C@@H]5CCCN5C(=O)[C@@H](c5ccccc5)N(C)C)[nH]4)nn3)cc2)[nH]1` [Example 152j-13, (2R)-2-(dimethylamino)-N-((1S)-1-(5-(4-(6-(2-((2S)-1-((2R)-2-(dimethylamino)-2-phenylacetyl)-2-pyrrolidinyl)-1H-imidazol-5-yl)-3-pyridazinyl)phenyl)-1H-imidazol-2-yl)ethyl)-2-phenylacetamide], the EC50 was 1 to 99 nM.

Work on `COC(=O)N[C@@H](C(=O)N1CCC[C@H]1c1ncc(-c2ccc(-c3ccc(-c4cnc([C@@H]5CCCN5C(=O)[C@H](NC(=O)OC)c5ccccc5)[nH]4)cc3CN(C)C)cc2)[nH]1)c1ccccc1` [Example M121, dimethyl((2-((dimethylamino)methyl)-4,4′-biphenyldiyl)bis(1H-imidazole-5,2-diyl(2S)-2,1-pyrrolidinediyl((1R)-2-oxo-1-phenyl-2,1-ethanediyl)))biscarbamate] yielded an EC50 of 100 to 999 nM.

Work on `C[C@@H](c1ncc(-c2ccc(-c3ccc(-c4cnc([C@@H]5CCCN5C(=O)[C@@H](c5ccccc5)N(C)C)[nH]4)cc3)cc2)[nH]1)N(C)C(=O)[C@@H](c1ccccc1)N(C)C` [Example 24-18-5, (2R)-2-(dimethyl-amino)-N-((1S)-1-(5-(4′-(2-((2S)-1-((2R)-2-(dimethyl-amino)-2-phenyl-acetyl)-2-pyrroli-dinyl)-1H-imida-zol-5-yl)-4-biphenyl-yl)-1H-imidazol-2-yl)ethyl)-N-methyl-2-phenyl-acetamide] yielded an EC50 of 0.01 to 0.999 nM.

`COC(=O)N[C@H](C(=O)N1CCC[C@H]1c1ncc(-c2ccc(-c3ccc(-c4cnc([C@@H]5CCCN5C(=O)[C@@H](NC(=O)OC)C(C)C)[nH]4)cc3CO)cc2)[nH]1)C(C)C` [Example M119, methyl((1S)-1-(((2S)-2-(5-(2-(hydroxymethyl)-4′-(2-((2S)-1-((2S)-2-((methoxycarbonyl)amino)-3-methylbutanoyl)-2-pyrrolidinyl)-1H-imidazol-5-yl)-4-biphenylyl)-1H-imidazol-2-yl)-1-pyrrolidinyl)carbonyl)-2-methylpropyl)carbamate] was tested, and the EC50 was 100 to 999 nM.
